Assay results from the supplement of paper PMC10307832.

Legend:
Test in all cases: relative viability (nuclei count vs DMSO), 5 days (fraction); higher = more cells survive
UMC-11 = system: UMC-11
How it was run: (§1)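 After 5 days of treatment, lung cancer cells in 1536-well plates were fixed and stained in a single step (final 0.05% Triton X-100, 1% formaldehyde, 1 ug/ml Hoechst) and their nuclei counted on 4× images. Treatment had been applied by pin tool the day after seeding as one drug alone or as a fixed anchor-drug dose with five library-drug doses (not always all listed) in √10 steps. Relative viability is the nuclei count of treated wells divided by that of vehicle wells, and values are medians of duplicate plates.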

HCC-366 = system: HCC-366
How it was run: as §1

NCI-H2228 = system: NCI-H2228
How it was run: as §1

NCI-H1944 = system: NCI-H1944
How it was run: as §1

NCI-H2126 = system: NCI-H2126
How it was run: as §1

NCI-H2009 = system: NCI-H2009
How it was run: as §1

ChaGo-K-1 = system: ChaGo-K-1
How it was run: as §1

HCC-78 = system: HCC-78
How it was run: as §1

A-427 = system: A-427
How it was run: as §1

NCI-H2405 = system: NCI-H2405
How it was run: as §1

ABC-1 = system: ABC-1
How it was run: as §1

NCI-H2023 = system: NCI-H2023
How it was run: as §1

NCI-H1993 = system: NCI-H1993
How it was run: as §1

NCI-H838 = system: NCI-H838
How it was run: as §1

NCI-H1734 = system: NCI-H1734
How it was run: as §1

EMC-BAC-2 = system: EMC-BAC-2
How it was run: as §1

NCI-H23 = system: NCI-H23
How it was run: as §1

SK-LU-1 = system: SK-LU-1
How it was run: as §1

HARA = system: HARA
How it was run: as §1

COR-L23 = system: COR-L23
How it was run: as §1

HCC-15 = system: HCC-15
How it was run: as §1

NCI-H1793 = system: NCI-H1793
How it was run: as §1

LC-2-ad = system: LC-2-ad
How it was run: as §1

NC(=O)Nc1cc(-c2cccc(F)c2)sc1C(=O)N[C@H]1CCCNC1 [AZD7762] + COc1cccc2cc(-c3nc([C@H]4CC[C@H](C(=O)O)CC4)n4ncnc(N)c34)[nH]c12 [OSI-027] (partner 0.5 µM)
relative viability (UMC-11; first compound 0.01 µM): 0.484
relative viability (UMC-11; first compound 0.03162 µM): 0.442
relative viability (UMC-11; first compound 0.1 µM): 0.43
relative viability (UMC-11; first compound 0.3162 µM): 0.33
relative viability (UMC-11; first compound 1 µM): 0.241
relative viability (HCC-366; first compound 0.01 µM): 1.02
relative viability (HCC-366; first compound 0.03162 µM): 0.896
relative viability (HCC-366; first compound 0.1 µM): 0.985
relative viability (HCC-366; first compound 0.3162 µM): 0.869
relative viability (HCC-366; first compound 1 µM): 0.122
relative viability (NCI-H2228; first compound 0.01 µM): 0.513
relative viability (NCI-H2228; first compound 0.03162 µM): 0.847
relative viability (NCI-H2228; first compound 0.1 µM): 0.492
relative viability (NCI-H2228; first compound 0.3162 µM): 0.302
relative viability (NCI-H2228; first compound 1 µM): 0.152
relative viability (NCI-H1944; first compound 0.01 µM): 0.396
relative viability (NCI-H1944; first compound 0.03162 µM): 0.467
relative viability (NCI-H1944; first compound 0.1 µM): 0.53
relative viability (NCI-H1944; first compound 0.3162 µM): 0.525
relative viability (NCI-H1944; first compound 1 µM): 0.299
relative viability (NCI-H2126; first compound 0.01 µM): 0.735
relative viability (NCI-H2126; first compound 0.03162 µM): 0.772
relative viability (NCI-H2126; first compound 0.1 µM): 0.783
relative viability (NCI-H2126; first compound 0.3162 µM): 0.871
relative viability (NCI-H2126; first compound 1 µM): 0.807
relative viability (NCI-H2009; first compound 0.01 µM): 0.664
relative viability (NCI-H2009; first compound 0.03162 µM): 0.736
relative viability (NCI-H2009; first compound 0.1 µM): 0.73
relative viability (NCI-H2009; first compound 0.3162 µM): 0.601
relative viability (NCI-H2009; first compound 1 µM): 0.459
relative viability (ChaGo-K-1; first compound 0.01 µM): 0.622
relative viability (ChaGo-K-1; first compound 0.03162 µM): 0.631
relative viability (ChaGo-K-1; first compound 0.1 µM): 0.56
relative viability (ChaGo-K-1; first compound 0.3162 µM): 0.643
relative viability (ChaGo-K-1; first compound 1 µM): 0.554
relative viability (HCC-78; first compound 0.01 µM): 0.43
relative viability (HCC-78; first compound 0.03162 µM): 0.452
relative viability (HCC-78; first compound 0.1 µM): 0.453
relative viability (HCC-78; first compound 0.3162 µM): 0.357
relative viability (HCC-78; first compound 1 µM): 0.346
relative viability (A-427; first compound 0.01 µM): 0.484
relative viability (A-427; first compound 0.03162 µM): 0.498
relative viability (A-427; first compound 0.1 µM): 0.343
relative viability (A-427; first compound 0.3162 µM): 0.353
relative viability (A-427; first compound 1 µM): 0.224
relative viability (NCI-H2405; first compound 0.01 µM): 0.608
relative viability (NCI-H2405; first compound 0.03162 µM): 0.676
relative viability (NCI-H2405; first compound 0.1 µM): 0.623
relative viability (NCI-H2405; first compound 0.3162 µM): 0.664
relative viability (NCI-H2405; first compound 1 µM): 0.455
relative viability (ABC-1; first compound 0.01 µM): 0.469
relative viability (ABC-1; first compound 0.03162 µM): 0.517
relative viability (ABC-1; first compound 0.1 µM): 0.414
relative viability (ABC-1; first compound 0.3162 µM): 0.349
relative viability (ABC-1; first compound 1 µM): 0.161
relative viability (NCI-H2023; first compound 0.01 µM): 0.405
relative viability (NCI-H2023; first compound 0.03162 µM): 0.331
relative viability (NCI-H2023; first compound 0.1 µM): 0.216
relative viability (NCI-H2023; first compound 0.3162 µM): 0.116
relative viability (NCI-H2023; first compound 1 µM): 0.105
relative viability (NCI-H1993; first compound 0.01 µM): 0.577
relative viability (NCI-H1993; first compound 0.03162 µM): 0.591
relative viability (NCI-H1993; first compound 0.1 µM): 0.58
relative viability (NCI-H1993; first compound 0.3162 µM): 0.532
relative viability (NCI-H1993; first compound 1 µM): 0.525
relative viability (NCI-H838; first compound 0.01 µM): 0.429
relative viability (NCI-H838; first compound 0.03162 µM): 0.374
relative viability (NCI-H838; first compound 0.1 µM): 0.415
relative viability (NCI-H838; first compound 0.3162 µM): 0.413
relative viability (NCI-H838; first compound 1 µM): 0.297
relative viability (NCI-H1734; first compound 0.01 µM): 0.638
relative viability (NCI-H1734; first compound 0.03162 µM): 0.704
relative viability (NCI-H1734; first compound 0.1 µM): 0.642
relative viability (NCI-H1734; first compound 0.3162 µM): 0.374
relative viability (NCI-H1734; first compound 1 µM): 0.238
relative viability (EMC-BAC-2; first compound 0.01 µM): 0.349
relative viability (EMC-BAC-2; first compound 0.03162 µM): 0.435
relative viability (EMC-BAC-2; first compound 0.1 µM): 0.465
relative viability (EMC-BAC-2; first compound 0.3162 µM): 0.345
relative viability (EMC-BAC-2; first compound 1 µM): 0.405
relative viability (NCI-H23; first compound 0.01 µM): 0.556
relative viability (NCI-H23; first compound 0.03162 µM): 0.567
relative viability (NCI-H23; first compound 0.1 µM): 0.652
relative viability (NCI-H23; first compound 0.3162 µM): 0.566
relative viability (NCI-H23; first compound 1 µM): 0.288
relative viability (SK-LU-1; first compound 0.01 µM): 0.35
relative viability (SK-LU-1; first compound 0.03162 µM): 0.384
relative viability (SK-LU-1; first compound 0.1 µM): 0.203
relative viability (SK-LU-1; first compound 0.3162 µM): 0.136
relative viability (SK-LU-1; first compound 1 µM): 0.157
relative viability (HARA; first compound 0.01 µM): 0.506
relative viability (HARA; first compound 0.03162 µM): 0.609
relative viability (HARA; first compound 0.1 µM): 0.564
relative viability (HARA; first compound 0.3162 µM): 0.59
relative viability (HARA; first compound 1 µM): 0.16
relative viability (COR-L23; first compound 0.01 µM): 0.866
relative viability (COR-L23; first compound 0.03162 µM): 0.866
relative viability (COR-L23; first compound 0.1 µM): 0.758
relative viability (COR-L23; first compound 0.3162 µM): 0.711
relative viability (COR-L23; first compound 1 µM): 0.285
relative viability (HCC-15; first compound 0.01 µM): 0.664
relative viability (HCC-15; first compound 0.03162 µM): 0.702
relative viability (HCC-15; first compound 0.1 µM): 0.72
relative viability (HCC-15; first compound 0.3162 µM): 0.766
relative viability (HCC-15; first compound 1 µM): 0.64
relative viability (NCI-H1793; first compound 0.01 µM): 0.265
relative viability (NCI-H1793; first compound 0.03162 µM): 0.268
relative viability (NCI-H1793; first compound 0.1 µM): 0.308
relative viability (NCI-H1793; first compound 0.3162 µM): 0.299
relative viability (NCI-H1793; first compound 1 µM): 0.25
relative viability (LC-2-ad; first compound 0.01 µM): 0.911
relative viability (LC-2-ad; first compound 0.03162 µM): 1
relative viability (LC-2-ad; first compound 0.1 µM): 0.816
relative viability (LC-2-ad; first compound 0.3162 µM): 0.8
relative viability (LC-2-ad; first compound 1 µM): 0.543
